The source of these data is patent US11033631B2, “Methods of treating CYP2D6 alternative metabolizers” (Nektar Therapeutics, priority 2008, dated 2021).

Series [1] has as its target T1, CYP2D6 (Homo sapiens, UniProt P10635). Nature of the series: biochemical.
Series [2] deals with T1, CYP2D6.
For series [3], the target named is T1, CYP2D6. Kind of series: Microsomal inhibition study, inhibition of bufuralol metabolism (Example 1). The conditions noted are these: read-out: 2D6 Affinity (IC50), Table 2.
Excerpt: The degree of a given molecule's metabolism by and affinity for CYP2D6 and other CYP isoforms may be assessed by any techniques known in the art, including through the use of Bactosomes™ or by microsomal inhibition studies. In vitro metabolism studies using Bactosomes™ expressing individual human CYP isoforms monitor the extent to which a test compound is metabolized by a single CYP450 enzyme and allow identification of the CYP isoforms that may be responsible for the metabolism of a test compound. […] These techniques can be used to assess the metabolism and affinity of not only the unconjugated version of a CYP2D6 bioactive drug but conjugated versions as well.
In series [4] the target is T2, CYP3A4 (Homo sapiens, UniProt P08684). Nature of the series: Microsomal inhibition study, inhibition of midazolam metabolism (Example 1). The conditions noted are these: read-out: 3A4 Affinity (IC50), Table 2.
Series [5] addresses T2, CYP3A4. The conditions noted are these: microsomes.
Series [6] has as its target T2, CYP3A4.
The mark [7] stands for this setting: read-out: CYP2D6 Inhibition of dextromethorphan O-demethylation IC50, human liver microsomes 0.1 mg/mL, test compound 0.1-25 μM, 5 minutes.
[8] abbreviates: read-out: CYP3A4 Inhibition of testosterone 6β-hydroxylation IC50, human liver microsomes 0.1 mg/mL, test compound 0.1-25 μM, 5 minutes.

Structures can show the parent of a compound that is named as a salt. Where two headings read alike, the source gives them in different places. Some results are limits rather than exact numbers.

T2 sequence (P08684 whole entry): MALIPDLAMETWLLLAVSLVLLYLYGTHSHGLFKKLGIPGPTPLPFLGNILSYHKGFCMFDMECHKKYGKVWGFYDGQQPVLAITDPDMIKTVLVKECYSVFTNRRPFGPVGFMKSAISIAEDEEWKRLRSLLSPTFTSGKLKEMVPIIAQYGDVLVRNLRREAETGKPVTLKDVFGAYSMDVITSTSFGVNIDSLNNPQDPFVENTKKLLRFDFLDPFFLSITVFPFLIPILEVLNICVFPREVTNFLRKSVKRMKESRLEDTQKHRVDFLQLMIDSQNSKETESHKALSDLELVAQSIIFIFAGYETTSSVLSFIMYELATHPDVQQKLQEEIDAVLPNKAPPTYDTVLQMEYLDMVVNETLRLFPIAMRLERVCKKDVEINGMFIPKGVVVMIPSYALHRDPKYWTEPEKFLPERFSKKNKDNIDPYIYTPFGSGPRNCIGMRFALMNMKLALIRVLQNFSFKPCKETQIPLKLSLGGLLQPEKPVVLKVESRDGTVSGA
T1 sequence (P10635 whole entry): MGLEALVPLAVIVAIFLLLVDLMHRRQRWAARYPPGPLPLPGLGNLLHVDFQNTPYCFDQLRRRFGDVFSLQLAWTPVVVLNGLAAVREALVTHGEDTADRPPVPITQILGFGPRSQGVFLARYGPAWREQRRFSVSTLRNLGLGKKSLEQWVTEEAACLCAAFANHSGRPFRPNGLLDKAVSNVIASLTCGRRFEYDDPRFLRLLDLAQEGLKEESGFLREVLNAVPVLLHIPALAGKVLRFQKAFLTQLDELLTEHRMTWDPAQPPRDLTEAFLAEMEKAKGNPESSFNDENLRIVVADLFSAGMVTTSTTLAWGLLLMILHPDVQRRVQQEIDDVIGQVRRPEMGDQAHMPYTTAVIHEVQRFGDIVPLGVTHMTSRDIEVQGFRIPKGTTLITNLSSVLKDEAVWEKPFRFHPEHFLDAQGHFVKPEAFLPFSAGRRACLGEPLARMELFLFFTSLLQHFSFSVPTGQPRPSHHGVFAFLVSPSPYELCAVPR

For `N=C(N)N1CCc2ccccc2C1` [Debrisoquine sulfate], on CYP2D6 [1], the IC50 (in general, the midpoint of a concentration-inhibition curve) was 19.5 µM.
As for `COCCOCCOCCOCCOCCN1CCN(C(c2ccccc2)c2ccc(Cl)cc2)CC1` (stereo not drawn) [PEG-3-HZ, mPEG3-hydroxyzine], the IC50 amounted to 9.7 µM on CYP2D6 [2] (setting [7]), 10.3 µM on CYP2D6 [3] and 17.8 µM at CYP3A4 [4].
On to `COCCOCCOCCOCCOCCOCCOCCN1CCN(C(c2ccccc2)c2ccc(Cl)cc2)CC1` (stereo not drawn) [PEG-5-HZ, mPEG5-hydroxyzine], for which the IC50 on CYP2D6 [2] (setting [7]) was 11.5 µM; against CYP3A4 [5], 7.9 µM; at CYP3A4 [6] (setting [8]), over 25 µM; on CYP2D6 [3] it was 11.7 µM; at CYP3A4 [4], 15.4 µM.
With `CC(C)NCC(O)COc1cccc2ccccc12` (stereo not drawn) [Propranolol hydrochloride, reference compound], the 50% inhibitory concentration (IC50) was 7.5 µM against CYP2D6 [2] (microsomes), over 25 µM at CYP3A4 [5] and 13.1 µM at CYP3A4 [6] (microsomes).
On to `COCCOCCOCCN(C)CCOC(c1ccccc1)c1ccccc1` [mPEG3-N-diphenhydramine], for which the IC50 is 2.6 µM against CYP2D6 [2] (microsomes), 16.4 µM at CYP3A4 [5] and over 25 µM at CYP3A4 [6] (setting [8]).
On to `COCCOCCOCCNCCCN1c2ccccc2CCc2ccccc21` [mPEG3-NH-desipramine], for which the results for the IC50 at CYP2D6 [2] (setting [7]), against CYP3A4 [5] and at CYP3A4 [6] (setting [8]) were 1.47 µM, 17.9 µM and over 25 µM, respectively.
As for `COCCOCCOCCOCCN(C)CCOC(c1ccccc1)c1ccccc1` [mPEG4-N-diphenhydramine], the IC50 against CYP2D6 [2] (microsomes) is 9.2 µM; against CYP3A4 [5], 13.1 µM; on CYP3A4 [6] (setting [8]), over 25 µM.
Turning to `COCCOCCOCCOCCOCCOCCOCCNCCCN1c2ccccc2CCc2ccccc21` [mPEG7-NH-desipramine], the figures for the IC50 on CYP2D6 [2] (setting [7]), on CYP3A4 [5] and at CYP3A4 [6] (setting [8]) were over 25 µM, 9.51 µM and over 25 µM, respectively.
